# Measurements: PMC3248991 (2011)
# Molecular target: HDM2 (MDM2) (Homo sapiens, UniProt Q00987)
# Assay: HTR-FRET competition assay of biotin-p53 / GST-HDM2 binding
# Sequence of HDM2 (MDM2) (Q00987 whole entry): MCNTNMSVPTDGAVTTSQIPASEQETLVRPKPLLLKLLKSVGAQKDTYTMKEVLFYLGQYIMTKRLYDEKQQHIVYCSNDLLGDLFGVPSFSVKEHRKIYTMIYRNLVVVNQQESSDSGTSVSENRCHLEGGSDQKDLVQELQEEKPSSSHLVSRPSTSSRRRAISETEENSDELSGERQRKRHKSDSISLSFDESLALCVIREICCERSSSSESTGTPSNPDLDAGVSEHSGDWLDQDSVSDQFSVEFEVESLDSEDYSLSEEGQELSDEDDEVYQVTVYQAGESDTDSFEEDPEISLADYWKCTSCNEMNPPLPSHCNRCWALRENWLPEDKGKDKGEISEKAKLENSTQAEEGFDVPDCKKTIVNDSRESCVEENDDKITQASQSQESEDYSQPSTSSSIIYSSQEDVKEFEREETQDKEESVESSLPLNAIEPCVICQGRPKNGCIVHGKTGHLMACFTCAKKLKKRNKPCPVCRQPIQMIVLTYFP
smiles,measurement,value
"CCC[C@@H](C)[C@H](O)[C@H](C)[C@@H](O)[C@@H](C)[C@H](Cc1nc(C2=N[C@@](C)(C3=N[C@@](C)(C(=O)N[C@H]([C@@H](O)[C@@H](C)C(=O)O)[C@@H](C)CC)CS3)CS2)cs1)OC [compound 1, hoiamide D]",IC50,4.5 µM
